Measurements taken from patent US7087762B2, “Long-lasting antimicrobial reaction product of allantoin and formaldehyde containing a low level of free formaldehyde” (ISP Investments Inc., priority 2002, dated 2006).

Key:
Format in all cases: cell-based
[1] = system: Candida albicans ATCC 10231; assay: Minimum Inhibitory Concentration (MIC) test, tube dilution, static and cidal; details: C. albicans
Experimental: (§1) The measurement of the lowest effective concentration of an anti-microbial or anti-microbial blend is important for recommending use concentrations. The MIC test is an in vitro tube dilution procedure used to identify effective concentrations of anti-microbials. In this test, the experimental compound is diluted by serial concentrations into nutrient culture media. Test organisms are then inoculated into the anti-microbial solutions.
(§2) If the experimental compound is effective, there is no growth observed in the test dilution tubes and they are clear. If the experimental compound is not effective, the test dilution tubes are cloudy, indicating growth. This test will determine static as well as cidal activity concentrations.
(§3) • 1. Laminar flow hood (Baker Sterilgard SG 400) • 2. 18×150 mm culture tubes • 3. Stock antimicrobial solution • 4. Media: Trypticase soy broth (BBL 11043) and AOAC Letheen broth (BBL 10914) • 5. Test organisms: Staphylococcus aureus ATCC 6538, Escherichia coli ATCC 8739, Pseudomonas aeruginosa ATCC 9027, Burkholderia cepacia ATCC 25416, Candida albicans ATCC 10231, and Aspergillus niger ATCC 16404. • 6. Spectrophotometer (Spectronic 20D, Milton Roy)
(§4) • 1. Antimicrobial stock solutions are prepared at predetermined concentrations (i.e., 10% through 0.07%) depending on the test material. Serial doubling dilutions are made as follows. Each culture tube contains 5 mls of trypticase soy broth. Five mls of the stock solution are added to the first tube and vortexed. 5 mls are then removed and placed into the second tube, (and so on, until the last tube). At the final test concentration, 5 mls of the broth/antimicrobial mixture is decanted out. • 2. The test organisms are prepared as with any organism inoculum (MLM 100-3, MLM 100-4, and MLM 100-5). A saline suspension of each organism is prepared. The bacterial organisms and the yeast are a standardized at a concentration of 1×10^6 cfu/ml. The mold inoculum is approximately 1×10^5 cfu/ml. • 3. Inoculate each culture tube with 0.10 mls of organism inoculum and vortex. • 4. Incubate bacterial tubes for 24 hours at 35° C. Incubate yeast or mold tubes for 48 hours at 25° C. Read for growth; turbid tubes for bacteria and yeast; mold clearly visible tubes. This is the minimum inhibitory concentration (static activity). • 5. After the tubes are read, transfer all “clear” tubes and the first cloudy (growth) tube into Letheen broth containing neutralizers. Incubate the Letheen broth tubes for 48 hours at the bacterial or fungal incubation temperatures. Read for growth; turbid tubes for bacteria and yeast; mold clearly visible in mold tubes. This is the cidal activity concentration. Discussion
(§5) The cidal activity of an anti-microbial can be rapidly screened by means of a MIC test before further evaluation tests, such as longer preservative efficacy tests, are performed. This test is a tube serial dilution procedure limited only by the water solubility of the material. Where anti-microbial materials are slightly insoluble, leaving the TSB broth turbid, a procedure modification can be made. Tubes are incubated for 24 hours (bacteria) or 48 hours (fungi) but instead of transfer to Letheen broth, the TSB tubes are streaked onto Letheen agar. The agar plates are then incubated appropriately and then read for absence or presence of growth. Depending on the degree of insolubility, a measure of cidal activity may be the only parameter measured.
(§6) Anti-microbial neutralization is important in this screening test. […] These are to be determined prior to testing.

[2] = system: Staphylococcus aureus ATCC 6538; assay: as above; details: Staph aureus
Experimental: as §1, §2, §3, §4, §5, §6

[3] = system: Escherichia coli ATCC 8739; assay: as above; details: E. coli
Experimental: as §1, §2, §3, §4, §5, §6

[4] = system: Pseudomonas aeruginosa ATCC 9027; assay: as above; details: P. aeruginosa
Experimental: as §1, §2, §3, §4, §5, §6

[5] = system: Aspergillus niger ATCC 16404; assay: as above; details: A. niger
Experimental: as §1, §2, §3, §4, §5, §6

[6] = system: Burkholderia cepacia ATCC 25416; assay: as above; details: B. cepacia
Experimental: as §1, §2, §3, §4, §5, §6

CAN (Candida albicans) = assay: Preservative challenge test, nonionic emulsion
Experimental: (§7) A typical cosmetic emulsion was prepared for microbiological challenge testing and predetermined admixtures of a methylol compound and IPBC were added at various use levels. The emulsion thus prepared had the following composition:
(§8) The challenge tests were carried out using the following microorganisms: SA, ECOLI, PSA, PC, AN and CAN, in this manner. 50 g aliquots of the test emulsion containing various amounts of the preservative admixture were inoculated with approximately 10^7–10^8 of the challenge organisms. The test samples then were stirred to disperse the challenge inoculum. The samples were incubated and assayed at 48 hours, 7, 14, 21 and 28 days. The assays were performed on 1 g of the test sample by serially diluting 10^1 to 10^6 of the original concentration. The plating medium for bacteria was Letheen agar and for fungi it was low pH Mycophil agar with Tween 20. Each plated sample was incubated for 48 hours at 37° C. for bacteria, 5 days at 25° C. for mold, and 3 days at 25° C. for fungi. After incubation, readings of the number of colonies per milliliter (cfu/ml) were made. At 21 days the test product was reinoculated with half of the original inoculum.

AN (Aspergillus niger) = assay: Preservative challenge test, nonionic emulsion
Experimental: as §7, §8

[7] = system: PSA (Pseudomonas aeruginosa); assay: Preservative challenge test, nonionic emulsion
Experimental: as §7, §8

[8] = system: EC (ECOLI, Escherichia coli); assay: Preservative challenge test, nonionic emulsion
Experimental: as §7, §8

## O=C1C(N(CO)C(=O)NCO)N(CO)C(=O)N1CO (stereo not shown) [Germall II]
[1]
  CIDAL (cidal activity concentration): >5000 ppm
  STATIC (minimum inhibitory concentration): 5000 ppm
[2]
  CIDAL (cidal activity concentration): 1250 ppm
  STATIC (minimum inhibitory concentration): 300 ppm
[3]
  CIDAL (cidal activity concentration): 1250 ppm
  STATIC (minimum inhibitory concentration): 600 ppm
[4]
  CIDAL (cidal activity concentration): 1250 ppm
  STATIC (minimum inhibitory concentration): 600 ppm
[5]
  CIDAL (cidal activity concentration): 2500 ppm
  STATIC (minimum inhibitory concentration): 2500 ppm
[6]
  CIDAL (cidal activity concentration): 600 ppm
  STATIC (minimum inhibitory concentration): 150 ppm
CAN (Candida albicans); 2000 ppm
  cfu/ml, 48 hrs: 320,000 cfu/ml
  cfu/ml, 7 days: 720,000 cfu/ml
  cfu/ml, 14 days: 650,000 cfu/ml
  cfu/ml, 21 days: 730,000 cfu/ml
  cfu/ml, 28 days: >1E6 cfu/ml
CAN (Candida albicans); 4000 ppm
  cfu/ml, 48 hrs: 50 cfu/ml
  cfu/ml, 7 days: 10,000 cfu/ml
  cfu/ml, 14 days: 620,000 cfu/ml
  cfu/ml, 21 days: 460,000 cfu/ml
  cfu/ml, 28 days: >1E6 cfu/ml
AN (Aspergillus niger); 2000 ppm
  cfu/ml, 48 hrs: <10 cfu/ml
  cfu/ml, 7 days: <10 cfu/ml
  cfu/ml, 14 days: <10 cfu/ml
  cfu/ml, 21 days: <10 cfu/ml
  cfu/ml, 28 days: <10 cfu/ml
AN (Aspergillus niger); 4000 ppm
  cfu/ml, 48 hrs: <10 cfu/ml
  cfu/ml, 7 days: <10 cfu/ml
  cfu/ml, 14 days: <10 cfu/ml
  cfu/ml, 21 days: <10 cfu/ml
  cfu/ml, 28 days: <10 cfu/ml
[7]; 2000 ppm
  cfu/ml, 48 hrs: <10 cfu/ml
  cfu/ml, 7 days: <10 cfu/ml
  cfu/ml, 14 days: <10 cfu/ml
  cfu/ml, 21 days: <10 cfu/ml
  cfu/ml, 28 days: <10 cfu/ml
[7]; 4000 ppm
  cfu/ml, 48 hrs: <10 cfu/ml
  cfu/ml, 7 days: <10 cfu/ml
  cfu/ml, 14 days: <10 cfu/ml
  cfu/ml, 21 days: <10 cfu/ml
  cfu/ml, 28 days: <10 cfu/ml
[8]; 2000 ppm
  cfu/ml, 48 hrs: <10 cfu/ml
  cfu/ml, 7 days: <10 cfu/ml
  cfu/ml, 14 days: <10 cfu/ml
  cfu/ml, 21 days: <10 cfu/ml
  cfu/ml, 28 days: <10 cfu/ml
[8]; 4000 ppm
  cfu/ml, 48 hrs: <10 cfu/ml
  cfu/ml, 7 days: <10 cfu/ml
  cfu/ml, 14 days: <10 cfu/ml
  cfu/ml, 21 days: <10 cfu/ml
  cfu/ml, 28 days: <10 cfu/ml
